According to US8404680B2, “N-[3-(5-amino-3,3a,7,7a-tetrahydro-1H-2,4-dioxa-6-aza-inden-7-yl)-phenyl]-amides as BACE1 and/or BACE2 inhibitors” (Hoffmann-La Roche Inc., priority 2011, dated 2013):

Assays:
BACE1 = target: T1, BACE1 (Homo sapiens, UniProt P56817); experiment: Cellular Aβ-lowering assay; format: cell-based; settings: human HEK293 cells stably expressing human APP wt (APP695); Aβ40 in supernatant by ELISA after 18-20 hrs
T1 construct: Human HEK293 cells which are stably transfected with a vector expressing a cDNA of the human APP wt gene (APP695); endogenous in cells; host or cells: HEK293 (human), stably transfected with human APP695 wt
T1 sequence (P56817 46-501): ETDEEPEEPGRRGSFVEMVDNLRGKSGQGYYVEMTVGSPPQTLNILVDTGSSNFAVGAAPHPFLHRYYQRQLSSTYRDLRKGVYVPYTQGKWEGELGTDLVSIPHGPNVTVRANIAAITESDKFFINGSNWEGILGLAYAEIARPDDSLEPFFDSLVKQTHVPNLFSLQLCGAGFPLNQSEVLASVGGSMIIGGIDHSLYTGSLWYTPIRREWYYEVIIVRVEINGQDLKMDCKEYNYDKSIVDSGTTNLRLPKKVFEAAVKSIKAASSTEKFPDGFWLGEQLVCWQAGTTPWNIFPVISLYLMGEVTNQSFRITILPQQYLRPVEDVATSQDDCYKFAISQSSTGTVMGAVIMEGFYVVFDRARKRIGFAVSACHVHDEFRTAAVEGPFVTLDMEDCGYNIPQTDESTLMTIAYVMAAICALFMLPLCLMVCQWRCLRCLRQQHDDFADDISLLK
Protocol: Cellular Aβ-Lowering Assay:
Human HEK293 cells which are stably transfected with a vector expressing a cDNA of the human APP wt gene (APP695) were used to assess the potency of the compounds in a cellular assay. The cells were seeded in 96-well microtiter plates in cell culture medium (Iscove, plus 10% (v/v) fetal bovine serum, glutamine, penicillin/streptomycin) to about 80% confluence and the compounds were added at a 10× concentration in 1/10 volume of medium without FCS containing 8% DMSO (final concentration of DMSO was kept at 0.8% v/v). After 18-20 hrs incubation at 37° C. and 5% CO2 in a humidified incubator the culture supernatant was harvested for the determination of Aβ40 concentrations. 96well ELISA plates (e.g., Nunc MaxiSorb) were coated with monoclonal antibody which specifically recognize the C-terminal end of Aβ40 (Brockhaus et al., NeuroReport 9, 1481-1486; 1998). After blocking of non-specific binding sites with e.g. 1% BSA and washing, the culture supernatants were added in suitable dilutions together with a horseradish peroxidase-coupled Aβ detection antibody (e.g., antibody 4G8, Senetek, Md. Heights, Mo.) and incubated for 5 to 7 hrs. Subsequently the wells of the microtiter plate were washed extensively with Tris-buffered saline containing 0.05% Tween 20 and the assay was developed with tetramethylbenzidine/H2O2 in citric acid buffer. After stopping the reaction with one volume 1 NH2SO4 the reaction was measured in an ELISA reader at 450 nm wavelength. The concentrations of Aβ in the culture supernatants were calculated from a standard curve obtained with known amounts of pure Aβ peptide.

BACE2 = target: T2, BACE2 (Rattus norvegicus, UniProt Q6IE75); experiment: Assay for BACE inhibition by measuring cellular TMEM27 cleavage; format: cell-based; settings: INS-TMEM27 (INS1e-derived rat cell line, inducible hTMEM27); shed TMEM27 in medium by ELISA
T2 construct: endogenous cellular BACE2 in the Ins1e rat cell line; endogenous in cells; host or cells: INS-TMEM27 (INS1e-derived rat cell line, TetOn-inducible full-length hTMEM27)
T2 sequence (Q6IE75 63-514): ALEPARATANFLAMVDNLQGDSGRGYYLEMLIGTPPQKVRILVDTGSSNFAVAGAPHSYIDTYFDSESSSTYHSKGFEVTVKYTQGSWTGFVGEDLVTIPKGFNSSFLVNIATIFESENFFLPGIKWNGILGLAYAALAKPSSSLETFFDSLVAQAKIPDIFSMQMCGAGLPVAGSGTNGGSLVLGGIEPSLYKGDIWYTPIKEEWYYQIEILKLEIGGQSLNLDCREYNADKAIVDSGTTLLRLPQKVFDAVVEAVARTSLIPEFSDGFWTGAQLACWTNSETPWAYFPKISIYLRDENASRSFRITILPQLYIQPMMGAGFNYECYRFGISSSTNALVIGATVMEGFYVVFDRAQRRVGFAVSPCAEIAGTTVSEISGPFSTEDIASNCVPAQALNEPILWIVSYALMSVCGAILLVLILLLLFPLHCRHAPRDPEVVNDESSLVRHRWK
From the text: Assay for BACE Inhibition by Measuring Cellular TMEM27 Cleavage:
The assay uses the principle of inhibition of human TMEM27 cleavage by endogenous cellular BACE2 in the Ins1e rat cell line and shedding from the cell surface into the culture medium, followed by detection in an ELISA assay Inhibition of BACE2 prevents the cleavage and shedding in a dose-dependent manner.
The stable cell line “INS-TMEM27” represents an INS1e-derived cell line with inducible expression (using the TetOn system) of full-length hTMEM27 in a doxycycline-dependent manner. The cells are cultured throughout the experiment in RPMI1640+ Glutamax (Invitrogen) Penicillin/Streptomycin, 10% Fetal bovine serum, […], […], 100 micrograms/ml G418 and 100 microgram/ml hygromycin and are grown inadherent culture at 37° C. in a standard CO2 cell culture incubator.
INS-TMEM27 cells are seeded in 96-well plates. After 2 days in culture, BACE2 inhibitor is added in a range of concentrations as required by the assay and after a further two hours, doxycycline is added to a final concentration of 500 ng/ml. The cells are incubated for a further 46 hours and the supernatant harvested for detection of shed TMEM27.
An ELISA assay (using a pair of mouse anti-human-TMEM27 antibodies, raised against the extracellular domain of TMEM27) is used for detection of TMEM27 in the culture medium. An EC50 for BACE2 inhibition is calculated using the ELISA readout for each inhibitor concentration with standard curve-fitting software such as XLFit for the Excel spreadsheet program.

IC50 (BACE1)	IC50 (BACE2)	Structure (SMILES)
0.7 nM	36 nM	C[C@]1(c2cc(NC(=O)c3ccc(Cl)cn3)ccc2F)N=C(N)O[C@@H]2COC[C@@H]21 [Example 1, 5-Chloro-pyridine-2-carboxylic acid [3-((3aS,7S,7aS)-5-amino-7-methyl-3,3a,7,7a-tetrahydro-1H-2,4-dioxa-6-aza-inden-7-yl)-4-fluoro-phenyl]-amide]
0.8 nM	14 nM	C[C@]1(c2cc(NC(=O)c3ncc(Cl)cc3Cl)ccc2F)N=C(N)O[C@@H]2COC[C@@H]21 [Example 2, 3,5-Dichloro-pyridine-2-carboxylic acid [3-((3aS,7S,7aS)-5-amino-7-methyl-3,3a,7,7a-tetrahydro-1H-2,4-dioxa-6-aza-inden-7-yl)-4-fluoro-phenyl]-amide]
